Assay results: patent publication US20110038948A1, “Methods of Reducing the Production of Reactive Oxygen Species and Methods of Screening or Identifying Compounds and Compositions that Reduce the Production of Reactive Oxygen Species” (UNIVERSITY OF TENNESSEE RESEARCH FOUNDATION, priority 2005, published 2011)

Key:
IL-6 = IL-6 expression in RAW 264 macrophages; format: cell-based; settings: RAW 264 macrophages cultured alone; compound added to calcitriol
Experimental: RAW 264 macrophages and 3T3-L1 preadipocytes (American Type Culture Collection) were incubated at a density of 8000 cells/cm2 (10 cm2 dish) and grown in Dulbecco's modified Eagle's medium (DMEM) containing 10% FBS and antibiotics (adipocyte medium) at 37° C. in 5% CO2 in air. Confluent 3T3-L1 preadipocytes were induced to differentiate with a standard differentiation medium consisting of DMEM-F10 (1:1, vol/vol) medium supplemented with 1% FBS, 1 μM dexamethasone, IBMX (0.5 mM) and antibiotics (1% Penicillin-Streptomycin). Preadipocytes were maintained in this differentiation medium for 3 days and subsequently cultured in adipocyte medium. […]
(§1) Cells were washed with fresh adipocyte medium, re-fed with medium containing the indicated treatments, and incubated at 37° C. in 5% CO2 for 48 hours before analysis. Cell viability was measured via trypan blue exclusion.
Human adipocytes (Zen-Bio, Inc.), 3T3-L1 adipocytes, RAW264 macrophages were obtained and co-cultured by using transwell inserts with 0.4 μm porous membranes (Corning) to separate adipocytes and macrophages. All data are expressed as mean±SEM. Data were evaluated for statistical significance by analysis of one-way or two-way variance (ANOVA; means with different letter differ, p<0.05). […]

TNFα = TNFα expression in RAW 264 macrophages; format: cell-based; settings: RAW 264 macrophages cultured alone; compound added to calcitriol
Experimental: RAW 264 macrophages and 3T3-L1 preadipocytes (American Type Culture Collection) were incubated at a density of 8000 cells/cm2 (10 cm2 dish) and grown in Dulbecco's modified Eagle's medium (DMEM) containing 10% FBS and antibiotics (adipocyte medium) at 37° C. in 5% CO2 in air. Confluent 3T3-L1 preadipocytes were induced to differentiate with a standard differentiation medium consisting of DMEM-F10 (1:1, vol/vol) medium supplemented with 1% FBS, 1 μM dexamethasone, IBMX (0.5 mM) and antibiotics (1% Penicillin-Streptomycin). Preadipocytes were maintained in this differentiation medium for 3 days and subsequently cultured in adipocyte medium. Cultures were re-fed every 2-3 days to allow 90% cells to reach fully differentiation for 3T3-L1 adipocytes or grow to a confluence for RAW 264 before conducting chemical treatment.
as §1
Human adipocytes (Zen-Bio, Inc.), 3T3-L1 adipocytes, RAW264 macrophages were obtained and co-cultured by using transwell inserts with 0.4 μm porous membranes (Corning) to separate adipocytes and macrophages. All data are expressed as mean±SEM. Data were evaluated for statistical significance by analysis of one-way or two-way variance (ANOVA; means with different letter differ, p<0.05).
Adipocyte and muscle 18s, CD14, TNFα, MIP, M-CSF, IL-6 and MCP-1 were quantitatively measured using a Smart Cycler Real Time PCR System (Cepheid, Sunnyvale, Calif.) with a TaqMan 1000 Core Reagent Kit (Applied Biosystems, Branchburg, N.J.). […] Reactions of quantitative RT-PCR for standards and unknown samples were also performed according to the instructions of Smart Cycler System (Cepheid, Sunnyvale, Calif.) and TaqMan Real Time PCR Core Kit (Applied Biosystems, Branchburg, N.J.). The mRNA quantitation for each sample was further normalized using the corresponding 18s quantitation.

NADPH oxidase = NADPH oxidase expression in cultured adipocytes; format: cell-based, mouse; settings: glucose 30 mmol/L alone or plus compound, 48 hours
Experimental: (§2) 3T3-L1 preadipocytes were incubated at a density of 8000 cells/cm^2 (10 cm^2 dish) and grown in Dulbecco's modified Eagle's medium (DMEM) containing 10% FBS and antibiotics (adipocyte medium) at 37° C. in 5% CO2 in air. Confluent preadipocytes were induced to differentiate with a standard differentiation medium consisting of DMEM-F10 (1:1, vol/vol) medium supplemented with 1% FBS, 1 μM dexamethasone, IBMX (0.5 mM) and antibiotics (1% Penicillin-Streptomycin). Preadipocytes were maintained in this differentiation medium for 3 days and subsequently cultured in adipocyte medium. Cultures were re-fed every 2-3 days to allow 90% of cells to reach full differentiation before conducting chemical treatment. Chemicals were freshly diluted in adipocyte medium before treatment. Cells were washed with fresh adipocyte medium, re-fed with medium containing the different treatments, and incubated at 37° C. in 5% CO2 in air before analysis. Cell viability was measured via trypan blue exclusion. Adipocyte 18s, cyclin A, NADPH oxidase, and UCP2 were quantitatively measured using a Smart Cycler Real Time PCR System (Cepheid, Sunnyvale, Calif.) with a TaqMan 1000 Core Reagent Kit (Applied Biosystems, Branchburg, N.J.). The primers and probe sets were ordered from Applied Biosystems TaqMan® Assays-on-Demand™ Gene Expression primers and probe set collection according to manufacture's instruction. Pooled adipocyte total RNA was serial-diluted in the range of 1.5625-25 ng and used to establish a standard curve; total RNAs for unknown samples were also diluted in this range. Reactions of quantitative RT-PCR for standards and unknown samples were also performed according to the instructions of Smart Cycler System (Cepheid, Sunnyvale, Calif.) and TaqMan Real Time PCR Core Kit (Applied Biosystems, Branchburg, N.J.). The mRNA quantitation for each sample was further normalized using the corresponding 18s quantitation.

cyclin A = assay: Cyclin A expression in cultured adipocytes; format: cell-based, mouse; settings: compound plus glucose 30 mmol/L, 48 hours
Experimental: as §2, with “Cells were washed with fresh adipocyte medium, re-fed with medium containing the different treatments, and incubated at 37° C. in 5% CO2 in air before analysis.” left out, “The primers and probe sets were ordered from Applied Biosystems TaqMan® Assays-on-Demand™ Gene Expression primers and probe set collection according to manufacture's instruction. Pooled adipocyte total RNA was serial-diluted in the range of 1.5625-25 ng and used to establish a standard curve; total RNAs for unknown samples were also diluted in this range.” left out

3T3-L1 adipocytes [1] = assay: Mitochondrial membrane potential (JC-1); format: cell-based, mouse; settings: GDP 100 μmol/L plus H2O2
Experimental: 3T3-L1 preadipocytes were incubated at a density of 8000 cells/cm^2 (10 cm^2 dish) and grown in Dulbecco's modified Eagle's medium (DMEM) containing 10% FBS and antibiotics (adipocyte medium) at 37° C. in 5% CO2 in air. Confluent preadipocytes were induced to differentiate with a standard differentiation medium consisting of DMEM-F10 (1:1, vol/vol) medium supplemented with 1% FBS, 1 μM dexamethasone, IBMX (0.5 mM) and antibiotics (1% Penicillin-Streptomycin). Preadipocytes were maintained in this differentiation medium for 3 days and subsequently cultured in adipocyte medium. Cultures were re-fed every 2-3 days to allow 90% of cells to reach full differentiation before conducting chemical treatment. Chemicals were freshly diluted in adipocyte medium before treatment. […] Cell viability was measured via trypan blue exclusion.
Mitochondrial membrane potential was analyzed fluorometrically with a lipophilic cationic dye JC-1 (5,5′,6,6′-tetrachloro-1,1′,3,3′-tetraethylbenzimidazol carbocyanine iodide) using a mitochondrial potential detection kit (Biocarta, San Diego, Calif.). Mitochondrial potential was determined as the ratio of red fluorescence (excitation 550 nm, emission 600 nm) and green fluorescence (excitation 485 nm, emission 535 nm) using a fluorescence microplate reader.

3T3-L1 adipocytes [2] = assay: Cell proliferation / DNA synthesis in cultured adipocytes (CyQUANT); format: cell-based, mouse; settings: compound plus glucose 30 mmol/L, 48 hours
Experimental: 3T3-L1 preadipocytes were incubated at a density of 8000 cells/cm^2 (10 cm^2 dish) and grown in Dulbecco's modified Eagle's medium (DMEM) containing 10% FBS and antibiotics (adipocyte medium) at 37° C. in 5% CO2 in air. Confluent preadipocytes were induced to differentiate with a standard differentiation medium consisting of DMEM-F10 (1:1, vol/vol) medium supplemented with 1% FBS, 1 μM dexamethasone, IBMX (0.5 mM) and antibiotics (1% Penicillin-Streptomycin). Preadipocytes were maintained in this differentiation medium for 3 days and subsequently cultured in adipocyte medium. Cultures were re-fed every 2-3 days to allow 90% of cells to reach full differentiation before conducting chemical treatment. Chemicals were freshly diluted in adipocyte medium before treatment. Cells were washed with fresh adipocyte medium, re-fed with medium containing the different treatments, and incubated at 37° C. in 5% CO2 in air before analysis. Cell viability was measured via trypan blue exclusion. Cells were plated in DMEM with different treatment in duplicate in 96-well plates. After 48 h, a CyQUANT Cell Proliferation Kit (Molecular Probes, Eugene, Oreg.) was used following the manufacturer's protocol. a microplate fluorometer (Packard Instrument Company, Inc., Downers Grove, Ill.) was used to measure CyQUANT fluorescence. Cell viability was determined by Trypan blue exclusion examination.

3T3-L1 adipocytes [3] = assay: Intracellular ROS generation in cultured adipocytes (H2-DCFDA); format: cell-based, mouse
Experimental: 3T3-L1 preadipocytes were incubated at a density of 8000 cells/cm^2 (10 cm^2 dish) and grown in Dulbecco's modified Eagle's medium (DMEM) containing 10% FBS and antibiotics (adipocyte medium) at 37° C. in 5% CO2 in air. Confluent preadipocytes were induced to differentiate with a standard differentiation medium consisting of DMEM-F10 (1:1, vol/vol) medium supplemented with 1% FBS, 1 μM dexamethasone, IBMX (0.5 mM) and antibiotics (1% Penicillin-Streptomycin). Preadipocytes were maintained in this differentiation medium for 3 days and subsequently cultured in adipocyte medium. Cultures were re-fed every 2-3 days to allow 90% of cells to reach full differentiation before conducting chemical treatment. Chemicals were freshly diluted in adipocyte medium before treatment. Cells were washed with fresh adipocyte medium, re-fed with medium containing the different treatments, and incubated at 37° C. in 5% CO2 in air before analysis. Cell viability was measured via trypan blue exclusion. […] Cells were loaded with H2-DCFDA (2 μmol/L) 30 minute before the end of the incubation period (48 h). After washing twice with PBS, cells were scraped and disrupted by sonication on ice (20 s). Fluorescence (emission 543 nm or 527 nm) and DNA content were then measured as described previously. The intensity of fluorescence was expressed as arbitrary units per ng DNA.

fatty acid synthase = assay: Fatty acid synthase gene expression in adipocytes; format: cell-based, murine
Source text: The adipose tissue-skeletal muscle endocrine axis may play a potential role in regulating metabolic energy partitioning. […] However, the effect of leucine and calcium, in regulating this process is unclear. Accordingly, present study was designed to investigate the effect of leucine, calcitriol and calcium on energy metabolism in murine adipocytes and muscle cells.

C2C12 myotubes [4] = assay: IL-15 release by myotubes (ELISA); format: cell-based, murine; settings: for effect on IL-15 release: C2C12 myotubes, 48 hours
Experimental: IL-15 release in the medium was determined using ELISA. Data are corrected for DNA content. Values are presented as mean±SEM, n=6. Means with different letter differ with p<0.05.

C2C12 myotubes [5] = assay: Fatty acid oxidation (palmitate oxidation) in muscle cells; format: cell-based, murine
Experimental: FIG. 53: Fatty acid oxidation was determined via palmitate oxidation. […] Data are corrected for DNA content. Values are presented as mean±SEM, n=6. Means with different letter differ with p<0.05.
The adipose tissue-skeletal muscle endocrine axis may play a potential role in regulating metabolic energy partitioning. […] While both calcium and dairy accelerate adipose tissue loss, dairy exerts a substantially greater effect and exerts a protective effect on lean tissue during hypocaloric diets. We have shown that dietary calcium modulation of adiposity is mediated, in part, by suppression of calcitriol, while the additional effect of dairy is mediated by additional bioactive components; these include the high concentration of leucine, a key factor in the regulation of muscle protein turnover. […] However, the effect of leucine and calcium, in regulating this process is unclear. Accordingly, present study was designed to investigate the effect of leucine, calcitriol and calcium on energy metabolism in murine adipocytes and muscle cells. Leucine induced a 41% increase in fatty acid oxidation in C2C12 muscle cells (p<0.001) and decreased fatty acid synthase gene expression by 66% (p<0.001) in 3T3-L1 adipocytes. Calcitriol decreased muscle cell fatty acid oxidation by 17% (p<0.05) and increased adipocyte FAS gene expression by 3-fold (p<0.05).

O=[N+]([O-])c1ccc(O)c([N+](=O)[O-])c1 [DNP]
effect on calcitriol stimulated IL-6 expression (IL-6): blocked
effect on calcitriol stimulated TNFα expression (TNFα): blocked

Nc1nc2c(ncn2[C@@H]2O[C@H](COP(=O)(O)OP(=O)(O)O)[C@@H](O)[C@H]2O)c(=O)[nH]1 [GDP]
effect on NADPH oxidase expression (NADPH oxidase): suppressed
effect on glucose stimulated cyclin A expression (cyclin A): augmented
augmentation of the H2O2 effect on mitochondrial potential (3T3-L1 adipocytes [1]): 10%
effect on glucose induced DNA synthesis (3T3-L1 adipocytes [2]): augmented
increase in ROS production compared with H2O2 treatment alone (3T3-L1 adipocytes [3]; GDP 100 μmol/L plus H2O2, 48 hours, p<0.01): 24%
effect on high glucose induced ROS production (3T3-L1 adipocytes [3]; compound plus glucose 30 mmol/L, 48 hours): further stimulated

O=C[C@H](O)[C@@H](O)[C@H](O)[C@H](O)CO [glucose]
effect on NADPH oxidase expression (NADPH oxidase): increased
effect on ROS production (3T3-L1 adipocytes [3]; glucose 30 mmol/L, 48 hours, p<0.05): increased ROS production significantly

CC(C)C[C@H](N)C(=O)O [leucine]
decrease in fatty acid synthase gene expression (fatty acid synthase; 3T3-L1 adipocytes, p<0.001): 66%
effect on calcitriol increased adipocyte FAS gene expression (fatty acid synthase; compound added to calcitriol): partially reversed
effect on IL-15 release (C2C12 myotubes [4]): without effect
increase in fatty acid oxidation (C2C12 myotubes [5]; C2C12 muscle cells, leucine 2.5 mM, 48 hours, p<0.001): 41%
effect on conditioned medium decreased fatty acid oxidation in muscle cells (C2C12 myotubes [5]; adipocytes conditioned with leucine and/or nifedipine): attenuated
effect on calcitriol decreased muscle cell fatty acid oxidation (C2C12 myotubes [5]; compound added to calcitriol): partially reversed

B1: adiponectin: adipokine added to C2C12 myotubes at 70 ng/ml (protein, UniProt Q15848 19-244, looked up)
Adiponectin: ETTTQGPGVLLPLPKGACTGWMAGIPGHPGHNGAPGRDGRDGTPGEKGEKGDPGLIGPKGDIGETGVPGAEGPRGFPGIQGRKGEPGEGAYVYRSAFSVGLETYVTIPNMPIRFTKIFYNQQNHYDGSTGKFHCNIPGLYYFAYHITVYMKDVKVSLFKKDKAMLFTYDQYQENNVDQASGSVLLHLEVGDQVWLQVYGEGERNGLYADNDNDSTFTGFLLYHDTN
effect on IL-15 release (C2C12 myotubes [4]): significantly increased
effect on calcitriol inhibition of IL-15 release (C2C12 myotubes [4]; adiponectin 70 ng/ml plus calcitriol 10 nM): partially reversed
effect on fatty acid oxidation (C2C12 myotubes [5]; C2C12 myotubes, adiponectin 70 ng/ml, 48 hours): markedly increased
effect on fatty acid oxidation suppressed by calcitriol (C2C12 myotubes [5]; in the presence of leucine): restored
